Measurements published in BindingDB's records for doi:10.1021/jm9911581 (Cnrs Umr 8532, 2000).

tested on: HIV-1 integrase catalytic core (disintegration assay); test: Compound was tested in vitro to inhibit human immuno virus-1 (HIV-1) using enzymatic disintegration assay.

Going from Oc1cccc2ccc(/C=C/c3ccccc3)nc12 [2-Styryl-quinolin-8-ol] to O=C(O)c1ccc2ccc(/C=C/c3ccccc3)nc2c1O [8-hydroxy-2-styrylquinoline-7-carboxylic acid], the IC50 falls from greater than 100 µM to 3.4 µM.

Compared with O=C(O)c1cc(/C=C/c2ccc3ccc(C(=O)O)c(O)c3n2)ccc1O [2-(3-carboxy-4-hydroxystyryl)-8-hydroxyquinoline-7-carboxylic acid], O=C(O)c1ccc2ccc(/C=C/c3ccc(O)cc3)nc2c1O [8-hydroxy-2-(4-hydroxystyryl)quinoline-7-carboxylic acid] is 1.6-fold higher in IC50: 2.7 µM for the first, 4.2 µM for the second.
